Source: article PMC5708334, “Synthesis of kinase inhibitors containing a pentafluorosulfanyl moiety” (Organic & Biomolecular Chemistry, 2017)

Assays:
DYRK3 (h) = target: T1, DYRK3 (h) (Homo sapiens, UniProt O43781); test: Biochemical kinase assay (CEREP); details: for IC50: 10 μM ATP, performed by CEREP
T1 sequence (O43781 1-588): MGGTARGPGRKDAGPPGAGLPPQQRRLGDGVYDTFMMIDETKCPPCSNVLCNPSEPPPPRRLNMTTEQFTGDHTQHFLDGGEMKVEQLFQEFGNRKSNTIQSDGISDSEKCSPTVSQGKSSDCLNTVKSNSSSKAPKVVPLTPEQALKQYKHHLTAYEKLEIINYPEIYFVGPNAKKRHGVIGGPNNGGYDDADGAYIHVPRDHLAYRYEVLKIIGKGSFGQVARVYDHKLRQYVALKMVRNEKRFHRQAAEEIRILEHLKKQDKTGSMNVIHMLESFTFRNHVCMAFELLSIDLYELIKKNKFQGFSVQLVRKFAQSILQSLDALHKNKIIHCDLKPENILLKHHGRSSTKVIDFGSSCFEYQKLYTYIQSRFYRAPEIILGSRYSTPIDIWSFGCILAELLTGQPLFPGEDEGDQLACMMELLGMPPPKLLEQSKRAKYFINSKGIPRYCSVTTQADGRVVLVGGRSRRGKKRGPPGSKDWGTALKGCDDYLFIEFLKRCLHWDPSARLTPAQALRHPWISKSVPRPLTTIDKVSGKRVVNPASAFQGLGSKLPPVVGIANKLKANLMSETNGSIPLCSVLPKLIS

PDGFRα (h) = PDGFRα (h) (Homo sapiens, UniProt P16234); test: Biochemical kinase assay (CEREP); details: for IC50: 10 μM ATP, performed by CEREP
PDGFRα (h), sequence (P16234 24-1089): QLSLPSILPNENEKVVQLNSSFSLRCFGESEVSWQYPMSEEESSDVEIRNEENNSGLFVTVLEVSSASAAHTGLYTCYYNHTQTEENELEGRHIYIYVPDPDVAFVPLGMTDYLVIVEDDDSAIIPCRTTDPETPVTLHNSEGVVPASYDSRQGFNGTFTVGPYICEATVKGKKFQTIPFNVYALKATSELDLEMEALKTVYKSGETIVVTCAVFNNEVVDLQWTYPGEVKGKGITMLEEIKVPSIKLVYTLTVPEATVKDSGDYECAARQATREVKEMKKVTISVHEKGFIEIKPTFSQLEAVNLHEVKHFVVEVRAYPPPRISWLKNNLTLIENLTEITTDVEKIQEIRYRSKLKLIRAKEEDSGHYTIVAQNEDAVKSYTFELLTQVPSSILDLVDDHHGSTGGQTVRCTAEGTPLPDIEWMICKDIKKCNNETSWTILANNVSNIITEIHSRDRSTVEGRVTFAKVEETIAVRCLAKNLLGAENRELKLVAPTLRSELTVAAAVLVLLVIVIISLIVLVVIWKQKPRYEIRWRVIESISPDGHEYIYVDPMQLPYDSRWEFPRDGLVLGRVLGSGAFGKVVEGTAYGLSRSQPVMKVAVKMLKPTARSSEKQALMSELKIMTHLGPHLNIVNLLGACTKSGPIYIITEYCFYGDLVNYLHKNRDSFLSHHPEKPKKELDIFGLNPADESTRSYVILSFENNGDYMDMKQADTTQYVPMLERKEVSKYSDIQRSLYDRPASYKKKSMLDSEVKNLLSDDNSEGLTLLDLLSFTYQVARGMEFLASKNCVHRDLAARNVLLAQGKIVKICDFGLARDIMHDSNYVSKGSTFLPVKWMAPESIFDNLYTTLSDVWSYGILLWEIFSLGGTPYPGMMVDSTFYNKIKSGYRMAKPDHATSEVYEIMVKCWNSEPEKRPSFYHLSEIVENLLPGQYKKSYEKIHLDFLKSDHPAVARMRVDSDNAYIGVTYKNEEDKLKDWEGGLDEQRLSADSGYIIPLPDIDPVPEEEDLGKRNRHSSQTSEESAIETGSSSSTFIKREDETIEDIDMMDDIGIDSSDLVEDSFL

FLT-4 (h) (VEGFR3) = FLT-4 (h) (VEGFR3) (Homo sapiens, UniProt P35916); test: Biochemical kinase assay (CEREP); details: for IC50: 10 μM ATP, performed by CEREP
FLT-4 (h) (VEGFR3), sequence (P35916 25-1363): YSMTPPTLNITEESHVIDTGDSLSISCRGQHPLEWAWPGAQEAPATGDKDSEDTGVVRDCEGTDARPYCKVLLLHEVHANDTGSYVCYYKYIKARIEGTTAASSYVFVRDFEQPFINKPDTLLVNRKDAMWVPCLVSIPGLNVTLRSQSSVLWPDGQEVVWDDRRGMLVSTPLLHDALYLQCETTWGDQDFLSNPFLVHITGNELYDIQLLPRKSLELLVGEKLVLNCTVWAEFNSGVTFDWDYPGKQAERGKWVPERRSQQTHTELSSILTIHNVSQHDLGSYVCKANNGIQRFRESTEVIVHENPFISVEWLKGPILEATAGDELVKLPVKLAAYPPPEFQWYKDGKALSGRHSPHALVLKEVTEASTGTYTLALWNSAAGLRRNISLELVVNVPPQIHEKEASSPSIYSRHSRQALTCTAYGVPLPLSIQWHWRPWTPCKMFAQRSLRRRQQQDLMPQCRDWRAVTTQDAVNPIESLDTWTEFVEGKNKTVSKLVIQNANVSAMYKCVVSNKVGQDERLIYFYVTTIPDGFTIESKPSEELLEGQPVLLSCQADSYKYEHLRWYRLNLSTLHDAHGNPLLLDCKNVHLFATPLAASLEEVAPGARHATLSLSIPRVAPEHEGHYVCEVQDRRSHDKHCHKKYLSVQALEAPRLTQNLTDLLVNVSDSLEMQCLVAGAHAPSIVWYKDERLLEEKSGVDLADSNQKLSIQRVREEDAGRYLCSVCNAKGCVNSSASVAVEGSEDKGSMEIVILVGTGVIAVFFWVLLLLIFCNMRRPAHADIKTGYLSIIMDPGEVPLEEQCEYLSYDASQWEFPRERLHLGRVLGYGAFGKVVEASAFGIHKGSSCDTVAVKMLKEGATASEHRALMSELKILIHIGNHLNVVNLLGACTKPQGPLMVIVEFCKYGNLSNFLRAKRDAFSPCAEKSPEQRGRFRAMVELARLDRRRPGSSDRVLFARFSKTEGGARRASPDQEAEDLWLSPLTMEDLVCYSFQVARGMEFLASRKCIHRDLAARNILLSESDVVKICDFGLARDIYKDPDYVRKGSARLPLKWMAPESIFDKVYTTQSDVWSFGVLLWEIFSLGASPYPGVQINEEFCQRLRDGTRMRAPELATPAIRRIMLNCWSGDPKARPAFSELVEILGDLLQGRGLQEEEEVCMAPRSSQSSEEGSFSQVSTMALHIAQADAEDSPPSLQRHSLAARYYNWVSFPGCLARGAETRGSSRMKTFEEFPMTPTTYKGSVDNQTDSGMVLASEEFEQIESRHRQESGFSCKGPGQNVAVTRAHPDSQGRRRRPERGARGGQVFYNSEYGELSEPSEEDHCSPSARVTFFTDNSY
Method: We tested all synthetic compounds against a panel of kinases in a biochemical assay. Each data point was measured in duplicate (technical replicates). […] Additional kinase binding studies were performed vs. a select group of functionally and structurally divergent kinases including AAK1 (Adaptor-associated protein kinase 1), BMP2K (BMP-2-inducible protein kinase, where BMP is bone morphogenic protein), GAK (Cyclin G-associated kinase) and STK16 (Serine/threonine-protein kinase 16) (Table 1).

[1] = target: STK16 (Serine/threonine-protein kinase 16) (Homo sapiens, UniProt O75716); test: Kinase binding displacement assay; details: no ATP present
STK16 (Serine/threonine-protein kinase 16), sequence (O75716 whole entry, species assumed): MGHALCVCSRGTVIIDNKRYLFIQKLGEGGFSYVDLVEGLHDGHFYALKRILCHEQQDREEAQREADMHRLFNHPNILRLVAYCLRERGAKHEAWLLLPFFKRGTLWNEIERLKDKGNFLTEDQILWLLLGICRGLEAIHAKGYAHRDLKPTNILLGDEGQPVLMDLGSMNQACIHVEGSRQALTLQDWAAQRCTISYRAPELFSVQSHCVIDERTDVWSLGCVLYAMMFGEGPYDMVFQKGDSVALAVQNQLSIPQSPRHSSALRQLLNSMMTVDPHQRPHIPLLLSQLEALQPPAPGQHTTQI

[2] = target: T2, GAK (Cyclin G-associated kinase) (Homo sapiens, UniProt O14976); test: Kinase binding displacement assay; details: no ATP present
T2 sequence (O14976 1-1311): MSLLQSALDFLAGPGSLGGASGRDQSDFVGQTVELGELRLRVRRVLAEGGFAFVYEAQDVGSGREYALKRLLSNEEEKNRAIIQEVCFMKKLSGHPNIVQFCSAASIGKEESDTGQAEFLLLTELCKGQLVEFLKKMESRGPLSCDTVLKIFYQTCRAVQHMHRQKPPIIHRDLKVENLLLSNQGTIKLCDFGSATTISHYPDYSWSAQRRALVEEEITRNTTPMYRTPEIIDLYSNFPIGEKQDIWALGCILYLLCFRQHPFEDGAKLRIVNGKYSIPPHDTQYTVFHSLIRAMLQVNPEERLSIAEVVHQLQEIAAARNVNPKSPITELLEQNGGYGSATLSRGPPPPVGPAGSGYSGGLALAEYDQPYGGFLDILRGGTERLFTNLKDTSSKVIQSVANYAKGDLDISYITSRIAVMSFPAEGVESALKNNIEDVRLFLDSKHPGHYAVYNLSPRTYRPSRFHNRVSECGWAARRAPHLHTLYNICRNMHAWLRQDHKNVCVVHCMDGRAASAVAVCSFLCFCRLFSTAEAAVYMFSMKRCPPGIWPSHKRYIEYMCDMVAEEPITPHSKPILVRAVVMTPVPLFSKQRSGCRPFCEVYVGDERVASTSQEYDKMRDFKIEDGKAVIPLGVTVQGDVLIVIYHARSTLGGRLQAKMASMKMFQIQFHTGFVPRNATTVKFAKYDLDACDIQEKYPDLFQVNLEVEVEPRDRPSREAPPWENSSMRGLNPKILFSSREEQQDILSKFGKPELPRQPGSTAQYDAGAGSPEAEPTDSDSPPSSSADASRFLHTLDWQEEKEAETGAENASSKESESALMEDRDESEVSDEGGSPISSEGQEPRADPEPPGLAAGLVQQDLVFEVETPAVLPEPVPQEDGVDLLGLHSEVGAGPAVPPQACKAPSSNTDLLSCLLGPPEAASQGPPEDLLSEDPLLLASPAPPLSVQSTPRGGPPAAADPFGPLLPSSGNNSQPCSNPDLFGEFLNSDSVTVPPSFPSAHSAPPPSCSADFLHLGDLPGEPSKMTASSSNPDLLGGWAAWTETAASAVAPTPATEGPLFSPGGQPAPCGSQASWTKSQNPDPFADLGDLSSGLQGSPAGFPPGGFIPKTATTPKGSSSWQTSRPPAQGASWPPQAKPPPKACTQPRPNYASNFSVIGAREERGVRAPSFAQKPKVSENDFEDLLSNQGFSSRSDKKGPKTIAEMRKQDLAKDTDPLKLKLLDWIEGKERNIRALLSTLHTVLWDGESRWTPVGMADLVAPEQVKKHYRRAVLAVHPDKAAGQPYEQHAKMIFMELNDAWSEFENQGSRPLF

[3] = target: BMP2K (BMP-2-inducible protein kinase) (Homo sapiens, UniProt Q9NSY1); test: Kinase binding displacement assay; details: no ATP present
BMP2K (BMP-2-inducible protein kinase), sequence (Q9NSY1 whole entry, species assumed): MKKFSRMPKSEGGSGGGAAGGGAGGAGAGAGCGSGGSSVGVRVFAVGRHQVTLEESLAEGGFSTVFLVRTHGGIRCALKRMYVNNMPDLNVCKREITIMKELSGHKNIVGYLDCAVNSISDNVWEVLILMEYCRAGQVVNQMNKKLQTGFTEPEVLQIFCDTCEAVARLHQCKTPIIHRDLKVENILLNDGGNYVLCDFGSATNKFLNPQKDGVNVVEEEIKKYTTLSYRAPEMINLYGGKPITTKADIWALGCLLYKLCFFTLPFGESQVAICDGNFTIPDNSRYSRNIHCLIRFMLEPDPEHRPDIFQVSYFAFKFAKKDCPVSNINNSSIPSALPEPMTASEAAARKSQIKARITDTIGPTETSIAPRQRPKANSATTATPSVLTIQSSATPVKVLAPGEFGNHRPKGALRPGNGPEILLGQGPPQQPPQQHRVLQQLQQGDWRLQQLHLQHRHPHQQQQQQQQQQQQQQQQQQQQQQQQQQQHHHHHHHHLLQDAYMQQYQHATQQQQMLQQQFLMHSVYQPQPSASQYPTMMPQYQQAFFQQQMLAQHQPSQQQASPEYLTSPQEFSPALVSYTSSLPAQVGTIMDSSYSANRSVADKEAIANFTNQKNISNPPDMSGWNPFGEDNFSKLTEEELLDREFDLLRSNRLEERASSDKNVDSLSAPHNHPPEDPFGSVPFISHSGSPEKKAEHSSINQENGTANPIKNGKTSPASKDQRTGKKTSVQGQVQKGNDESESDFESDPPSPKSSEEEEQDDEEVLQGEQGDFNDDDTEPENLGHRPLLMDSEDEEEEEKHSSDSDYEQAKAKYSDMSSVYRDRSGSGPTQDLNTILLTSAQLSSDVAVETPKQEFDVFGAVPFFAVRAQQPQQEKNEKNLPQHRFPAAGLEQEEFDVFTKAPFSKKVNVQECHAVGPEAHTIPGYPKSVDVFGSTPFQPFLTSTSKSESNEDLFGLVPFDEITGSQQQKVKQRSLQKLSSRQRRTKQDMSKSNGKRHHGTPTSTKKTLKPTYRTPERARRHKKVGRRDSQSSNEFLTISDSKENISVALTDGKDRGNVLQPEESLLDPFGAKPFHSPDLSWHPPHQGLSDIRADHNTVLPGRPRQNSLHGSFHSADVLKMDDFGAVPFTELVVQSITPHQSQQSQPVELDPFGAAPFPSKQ

[4] = target: AAK1 (Adaptor-associated protein kinase 1) (Homo sapiens, UniProt Q2M2I8); test: Kinase binding displacement assay; details: no ATP present
AAK1 (Adaptor-associated protein kinase 1), sequence (Q2M2I8 whole entry, species assumed): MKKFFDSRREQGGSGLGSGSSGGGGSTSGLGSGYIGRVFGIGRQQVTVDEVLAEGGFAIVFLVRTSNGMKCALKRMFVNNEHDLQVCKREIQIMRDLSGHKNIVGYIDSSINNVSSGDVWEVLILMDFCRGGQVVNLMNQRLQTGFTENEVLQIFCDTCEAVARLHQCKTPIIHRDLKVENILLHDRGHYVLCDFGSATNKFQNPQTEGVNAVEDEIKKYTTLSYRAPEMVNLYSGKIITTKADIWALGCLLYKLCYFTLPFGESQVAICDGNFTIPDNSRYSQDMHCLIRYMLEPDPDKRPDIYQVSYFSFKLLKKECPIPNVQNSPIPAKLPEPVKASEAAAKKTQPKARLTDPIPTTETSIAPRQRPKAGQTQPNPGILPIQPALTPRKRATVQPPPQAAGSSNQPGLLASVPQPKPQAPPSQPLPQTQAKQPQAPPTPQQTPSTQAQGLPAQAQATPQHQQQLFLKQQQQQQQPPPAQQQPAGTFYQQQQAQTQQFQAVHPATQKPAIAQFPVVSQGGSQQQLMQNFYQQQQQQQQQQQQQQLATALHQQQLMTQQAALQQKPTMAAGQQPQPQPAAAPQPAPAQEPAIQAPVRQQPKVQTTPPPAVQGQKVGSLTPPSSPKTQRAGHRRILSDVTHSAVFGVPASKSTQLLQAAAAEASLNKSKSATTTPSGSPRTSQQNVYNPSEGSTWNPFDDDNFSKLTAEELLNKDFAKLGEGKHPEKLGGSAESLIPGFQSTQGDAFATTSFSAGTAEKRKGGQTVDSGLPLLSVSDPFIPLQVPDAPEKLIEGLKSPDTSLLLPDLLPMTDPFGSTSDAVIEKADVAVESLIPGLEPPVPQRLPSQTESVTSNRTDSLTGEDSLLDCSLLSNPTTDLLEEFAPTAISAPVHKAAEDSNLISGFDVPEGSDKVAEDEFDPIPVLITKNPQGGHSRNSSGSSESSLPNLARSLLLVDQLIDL

MCF7 = test: Cell proliferation assay; assay type: cell-based; details: Homo sapiens, 50% reduction in cellular proliferation vs DMSO-treated control, read-out: GC50 MCF7
Description: (§1) The synthesized compounds were next tested in breast cancer and non-transformed breast cell lines.

T47D = test: Cell proliferation assay; assay type: cell-based; details: Homo sapiens, 50% reduction in cellular proliferation vs DMSO-treated control, read-out: GC50 T47D
Description: as §1

[5] = tested on: MCF7 and T47D breast cancer cell; test: Cell proliferation assay (range over both lines); assay type: cell-based; details: range over both compounds and both cell lines; read-out: GC50 values, MCF7 and T47D (range)
Description: as §1

Row | Compound | inhibition of DYRK3 (DYRK3 (h)) | IC50 (DYRK3 (h)) | IC50 (PDGFRα (h)) | IC50 (FLT-4 (h) (VEGFR3)) | IC50 [1] | IC50 [2] | IC50 [3] | IC50 [4] | IC50 (MCF7) | IC50 (T47D) | IC50 [5] | potency vs. PDGFRα (PDGFRα (h)) | IC50 vs. PDGFRα (PDGFRα (h)) | IC50 vs. VEGFR3 (FLT-4 (h) (VEGFR3))
1 | 5-Pentafluorosulfanyl-3-ferrocenylindolin-2-one [Compound 12a] | low micromolar range | 1.7 µM | > 1 µM | > 1 µM | – | – | – | – | – | – | – | – | – | –
2 | 5-Pentafluorosulfanyl-3-ferrocenylindolin-2-one [Compound 12b] | low micromolar range | 2.4 µM | > 1 µM | > 1 µM | – | – | – | – | – | – | – | – | – | –
3 | O=C1Nc2ccc(S(F)(F)(F)(F)F)cc2/C1=C/c1ccc[nH]1 [Compound 10, (Z)-3-(1H-Pyrrol-2-yl)methylene-5-pentafluorosulfanylindoline-2-one] | – | > 1 µM | > 1 µM | > 1 µM | 17.6 µM | 34.2 µM | 0.452 µM | 1 µM | 4.8 ± 1 µM | 0.49 ± 0.4 µM | 0.35 to 3.8 µM | – | – | –
4 | O=C1Nc2cc(S(F)(F)(F)(F)F)ccc2/C1=C/c1ccc[nH]1 [Compound 11, (Z)-3-(1H-Pyrrol-2-yl)methylene-6-pentafluorosulfanylindoline-2-one] | – | > 1 µM | 0.098 µM | 0.23 µM | 135 µM | 0.476 µM | 187 µM | 1000 µM | 0.69 ± 0.4 µM | 0.35 ± 0.1 µM | 0.35 to 3.8 µM | 0.098 µM | – | –
5 | Cc1[nH]c(/C=C2\C(=O)Nc3ccc(S(F)(F)(F)(F)F)cc32)c(C)c1CCC(=O)O [Compound 13, (Z)-3-(2,4-Dimethyl-5-((5-pentafluorosulfanyl-2-oxoindolin-3-ylidene)methyl)-1H-pyrrol-3-yl)propanoic acid] | – | > 1 µM | > 1 µM | 0.53 µM | > 1 µM | > 1 µM | > 1 µM | > 1 µM | – | – | – | – | – | –
6 | Cc1[nH]c(/C=C2\C(=O)Nc3cc(S(F)(F)(F)(F)F)ccc32)c(C)c1CCC(=O)O [Compound 14, (Z)-3-(2,4-Dimethyl-5-((6-pentafluorosulfanyl-2-oxoindolin-3-ylidene)methyl)-1H-pyrrol-3-yl)propanoic acid] | – | > 1 µM | 0.0031 µM | 0.018 µM | > 1 µM | > 1 µM | > 1 µM | > 1 µM | – | – | – | – | low nM potency | low nM potency
